What was measured:
P. falciparum = test: EC50 listed in S2 Table Metabolomics (used to set the concentration tested); type: cell-based; conditions: Plasmodium falciparum; EC50 used for Factor_XEC50 in metabolomics; read-out: EC50_nM
[1] = system: P. falciparum 3D7 trophozoites; test: Metabolomic fingerprint profiling LC-MS; type: cell-based, Plasmodium falciparum; design: UDP-D-glucose / ADP-D-glucose: unit not given here; conditions: for Acetyllysine / N-acetyl-L-ornithine / N-carbamoyl-L-aspartate / NADPH / dAMP / dCMP / dTDP / dTMP / dTTP / dihydroorotate / orotate / DLH / DLS/SDL/SID / PD / PEE / PVNF / 3-phosphoglycerate / ADP-D-glucose / ATP / CDP / D-sedoheptulose-1/7-phosphate / FAD / GMP / NAD+ / NADP+ / Octoluse Bisphosphate / Pyroglutamic acid / UDP-D-glucose / UDP-D-glucuronate / UDP-N-acetyl-glucosamine / UDP / UMP / UTP / a-ketoglutarate / citrate/isocitrate / cytidine / dATP / dGMP/AMP / fumarate / glucose-1/6-phosphate / glycerate / guanine / guanosine / hypoxanthine / indole / inosine / nicotinate / ornithine / phosphoenolpyruvate / pyruvate / ribose-phosphate / sarcosine/alanine / sn-glycerol-3-phosphate / succinate/methylmalonic acid / uridine / xanthosine: S2 Table Metabolomics; for Acetyllysine: metabolite Acetyllysine; for N-acetyl-L-ornithine: metabolite N-acetyl-L-ornithine; for N-carbamoyl-L-aspartate: metabolite N-carbamoyl-L-aspartate; for NADPH: metabolite NADPH; for dAMP: metabolite dAMP; for dCMP: metabolite dCMP; for dTDP: metabolite dTDP; for dTMP: metabolite dTMP; for dTTP: metabolite dTTP; for dihydroorotate: metabolite dihydroorotate; for orotate: metabolite orotate; for DLH: peptide DLH; for DLS/SDL/SID: peptide DLS/SDL/SID; for PD: peptide PD; for PEE: peptide PEE; for PVNF: peptide PVNF; for 3-phosphoglycerate: metabolite 3-phosphoglycerate; for ADP-D-glucose: metabolite ADP-D-glucose; for ATP: metabolite ATP; for CDP: metabolite CDP; for CDP / D-sedoheptulose-1/7-phosphate / GMP / Octoluse Bisphosphate / UDP / UMP / UTP / citrate/isocitrate / dGMP/AMP / fumarate / glucose-1/6-phosphate / glycerate / guanine / guanosine / inosine / pyruvate / sarcosine/alanine / succinate/methylmalonic acid / uridine / xanthosine: change in metabolite level after compound treatment; for D-sedoheptulose-1/7-phosphate: metabolite D-sedoheptulose-1/7-phosphate; for FAD: metabolite FAD; for GMP: metabolite GMP; for NAD+: metabolite NAD+; for NADP+: metabolite NADP+; for Octoluse Bisphosphate: metabolite Octoluse Bisphosphate; for Pyroglutamic acid: metabolite Pyroglutamic acid; for UDP-D-glucose: metabolite UDP-D-glucose; for UDP-D-glucuronate: metabolite UDP-D-glucuronate; for UDP-N-acetyl-glucosamine: metabolite UDP-N-acetyl-glucosamine; for UDP: metabolite UDP; for UMP: metabolite UMP; for UTP: metabolite UTP; for a-ketoglutarate: metabolite a-ketoglutarate; for citrate/isocitrate: metabolite citrate/isocitrate; for cytidine: metabolite cytidine; for dATP: metabolite dATP; for dGMP/AMP: metabolite dGMP/AMP; for fumarate: metabolite fumarate; for glucose-1/6-phosphate: metabolite glucose-1/6-phosphate; for glycerate: metabolite glycerate; for guanine: metabolite guanine; for guanosine: metabolite guanosine; for hypoxanthine: metabolite hypoxanthine; for indole: metabolite indole; for inosine: metabolite inosine; for 2_3-Diphosphoglyceric acid / 4-phosphopantothenate / 6-phospho-D-gluconate / FMN / IMP / Pyrophosphate / Sedoheptoluse bisphosphate / cyclic-AMP / glutathione disulfide / lactate / myo-inositol: metabolite level change after treatment; for nicotinate: metabolite nicotinate; for ornithine: metabolite ornithine; for phosphoenolpyruvate: metabolite phosphoenolpyruvate; for pyruvate: metabolite pyruvate; for ribose-phosphate: metabolite ribose-phosphate; for sarcosine/alanine: metabolite sarcosine/alanine; for sn-glycerol-3-phosphate: metabolite sn-glycerol-3-phosphate; for succinate/methylmalonic acid: metabolite succinate/methylmalonic acid; for uridine: metabolite uridine; for xanthosine: metabolite xanthosine

## CCOC(=O)c1ccc2nc(-c3ccccc3)cc(O)c2c1 [MMV006457]
P. falciparum
  EC50: 0.118 µM
[1]
  Acetyllysine: -0.3384
  N-acetyl-L-ornithine: -0.3139
  N-carbamoyl-L-aspartate: 4.351
  NADPH: 0.6352
  dAMP: -0.4724
  dCMP: -0.3312
  dTDP: -1.515
  dTMP: -1.363
  dTTP: -1.304
  dihydroorotate: 4.958
  orotate: -1.367
  DLH: -0.4882
  DLS/SDL/SID: -0.4763
  PD: 0.2786
  PEE: -0.4235
  PVNF: -0.7922
  3-phosphoglycerate: 0.07595
  ADP-D-glucose: 0.02112
  ATP: 0.06279
  CDP: -1.282
  D-sedoheptulose-1/7-phosphate: -0.2959
  FAD: 0.202
  GMP: 0.5528
  NAD+: 0.1474
  NADP+: -0.1781
  Octoluse Bisphosphate: -0.2401
  Pyroglutamic acid: 0.01503
  UDP-D-glucose: 0.02564
  UDP-D-glucuronate: -0.1377
  UDP-N-acetyl-glucosamine: -0.1506
  UDP: -1.814
  UMP: -1.819
  UTP: -1.644
  a-ketoglutarate: -0.2281
  citrate/isocitrate: -0.877
  cytidine: 0.9143
  dATP: 0.2755
  dGMP/AMP: -0.2048
  fumarate: 0.4222
  glucose-1/6-phosphate: 0.1449
  glycerate: -0.03038
  guanine: 0.7811
  guanosine: 0.4264
  hypoxanthine: 0.2443
  indole: 0.3097
  inosine: 0.319
  2_3-Diphosphoglyceric acid: -0.1036
  4-phosphopantothenate: -0.4551
  6-phospho-D-gluconate: 0.1425
  FMN: -0.04566
  IMP: 0.4558
  Pyrophosphate: 0.1188
  Sedoheptoluse bisphosphate: -0.2455
  cyclic-AMP: -0.04029
  glutathione disulfide: 0.1448
  lactate: 0.2927
  myo-inositol: -0.1285
  nicotinate: 0.07641
  ornithine: 0.3647
  phosphoenolpyruvate: -0.1372
  pyruvate: -0.1462
  ribose-phosphate: 0.3187
  sarcosine/alanine: 0.6115
  sn-glycerol-3-phosphate: 0.3451
  succinate/methylmalonic acid: -0.4755
  uridine: -0.2838
  xanthosine: -0.0194

## CCc1c(C)c(=N)c2ccccc2n1C [MMV006278]
P. falciparum
  EC50: 0.378 µM
[1]
  Acetyllysine: -0.2738
  N-acetyl-L-ornithine: -0.3387
  N-carbamoyl-L-aspartate: 0.04339
  NADPH: -0.1545
  dAMP: -0.2592
  dCMP: 0.05199
  dTDP: -0.2955
  dTMP: -0.278
  dTTP: 0.1315
  dihydroorotate: 0.1029
  orotate: -0.07528
  DLH: 0.1151
  DLS/SDL/SID: -0.1067
  PD: -0.1923
  PEE: 0.09363
  PVNF: -0.2186
  3-phosphoglycerate: -0.1758
  ADP-D-glucose: -0.3132
  ATP: -0.07819
  CDP: -0.1774
  D-sedoheptulose-1/7-phosphate: -0.2519
  FAD: -0.07776
  GMP: -0.3571
  NAD+: -0.07608
  NADP+: -0.2182
  Octoluse Bisphosphate: -0.2383
  Pyroglutamic acid: -0.07564
  UDP-D-glucose: -0.16
  UDP-D-glucuronate: -0.1623
  UDP-N-acetyl-glucosamine: -0.2266
  UDP: -0.2326
  UMP: -0.3171
  UTP: 0.05042
  a-ketoglutarate: 0.05252
  citrate/isocitrate: 0.03563
  cytidine: -0.182
  dATP: 0.1448
  dGMP/AMP: -0.3534
  fumarate: -0.3107
  glucose-1/6-phosphate: -0.535
  glycerate: -0.4983
  guanine: -0.2094
  guanosine: -0.1411
  hypoxanthine: 0.04937
  indole: -0.04764
  inosine: -0.3767
  2_3-Diphosphoglyceric acid: -0.2671
  4-phosphopantothenate: -0.1093
  6-phospho-D-gluconate: -0.1749
  FMN: 0.06658
  IMP: -0.1794
  Pyrophosphate: -0.2417
  Sedoheptoluse bisphosphate: -0.1437
  cyclic-AMP: -0.03098
  glutathione disulfide: -0.1999
  lactate: 0.04854
  myo-inositol: 0.07173
  nicotinate: -0.02818
  ornithine: 0.04171
  phosphoenolpyruvate: -0.1381
  pyruvate: -0.06156
  ribose-phosphate: 0.02401
  sarcosine/alanine: -0.2797
  sn-glycerol-3-phosphate: -0.6565
  succinate/methylmalonic acid: -0.7483
  uridine: -0.02002
  xanthosine: -0.104

## OC(CNC1CCCCC1)Cn1c2ccccc2c2ccccc21 (stereo not drawn) [MMV009063]
P. falciparum
  EC50: 0.293 µM
[1]
  Acetyllysine: -0.9697
  N-acetyl-L-ornithine: -0.4154
  N-carbamoyl-L-aspartate: -0.3154
  NADPH: 0.37
  dAMP: 0.9178
  dCMP: 4.938
  dTDP: 0.7098
  dTMP: 0.6703
  dTTP: 1.896
  dihydroorotate: -0.3265
  orotate: -0.5164
  DLH: -0.8674
  DLS/SDL/SID: -0.2423
  PD: -0.8841
  PEE: -0.7244
  PVNF: -0.6115
  3-phosphoglycerate: 0.9312
  ADP-D-glucose: 0.2307
  ATP: 0.3671
  CDP: 0.5148
  D-sedoheptulose-1/7-phosphate: -0.5559
  FAD: 0.5708
  GMP: 0.12
  NAD+: -0.1605
  NADP+: 0.3102
  Octoluse Bisphosphate: 0.2421
  Pyroglutamic acid: 0.1616
  UDP-D-glucose: 0.2936
  UDP-D-glucuronate: 0.2553
  UDP-N-acetyl-glucosamine: 0.3811
  UDP: 0.491
  UMP: 0.4628
  UTP: 0.409
  a-ketoglutarate: -0.1494
  citrate/isocitrate: 0.2484
  cytidine: 0.7064
  dATP: 0.1129
  dGMP/AMP: 0.3842
  fumarate: -0.3431
  glucose-1/6-phosphate: 1.039
  glycerate: 0.4301
  guanine: 0.4492
  guanosine: 0.3938
  hypoxanthine: 0.2685
  indole: -0.01895
  inosine: 0.305
  2_3-Diphosphoglyceric acid: 0.9003
  4-phosphopantothenate: 0.6116
  6-phospho-D-gluconate: 0.5165
  FMN: 0.5888
  IMP: 0.4443
  Pyrophosphate: -0.0661
  Sedoheptoluse bisphosphate: 0.4491
  cyclic-AMP: 0.4153
  glutathione disulfide: 0.4569
  lactate: 0.8013
  myo-inositol: 0.939
  nicotinate: 0.31
  ornithine: 0.3762
  phosphoenolpyruvate: 0.7676
  pyruvate: 0.735
  ribose-phosphate: 0.3548
  sarcosine/alanine: -0.09066
  sn-glycerol-3-phosphate: 0.5324
  succinate/methylmalonic acid: -0.07148
  uridine: 0.5909
  xanthosine: -0.08621
